Test results taken from patent publication US8481494B2, “Compounds for the treatment of diseases related to protein misfolding” (priority 2009, dated 2013).
Converted amounts (≈) assume the structure as drawn.

Assays:
Aβ(1-42) = target: T1, Aβ(1-42) (Homo sapiens, UniProt P05067); experiment: ThT kinetics of Aβ aggregation; assay type: biochemical; conditions: in words
T1 construct: Aβ(1-42)-peptide (Bachem, Bubendorf, Germany) was prepared in HFIP; purchased Bachem, Bubendorf
Method: The influence of the new β-sheet ligands, based on the aminopyrazole-trimer, on the Aβ self-assembly process was first studied kinetically. Reference curves were obtained independently for both Aβ (1-40) and Aβ (1-42). In a typical experiment, one third (⅓) equivalent of thioflavine T was added to a solution of monomeric Aβ in PBS buffer, prepared in HFIP. The increase in ThT fluorescence was monitored over time, as a measure of the total amount of accumulating aggregates. […] Both peptides reached a plateau after ˜3 days, which was set as standard time period for all consecutive aggregation assays.
Care was taken to eliminate fluorescence changes induced by any other events than the aggregation process; thus each ligand was separately shown to be non-fluorescent and not to alter Tht fluorescence in mixtures. Controls with pure Aβ were identical in peptide concentration as well as buffer and solvent composition. […] Aβ (1-42): Much more impressive is the inhibitory influence of the trimeric ligands on the aggregation kinetics of the full-length Aβ (1-42). […]
Then, a mixture of 9.5 μL ThT (62.7 μM stock solution), 6 μL PBS and 38.1 μL water (bidest.) was pipetted. […] Sixty μL of aggregation mixtures were pipetted in a 384-well plate and the fluorescence intensity (exc. at 446 nm, em. at 490 nm) was measured every hour at 37° C. […]

Oregon-Green-labeled Aβ = target: T2, Oregon-Green-labeled Aβ (Homo sapiens, UniProt P05067); experiment: Sedimentation analysis (analytical ultracentrifugation) of Aβ with ligand; assay type: binding
T2 construct: aggregation mixtures of Aβ(1-42)/Aβ42-OG (17.5 nM/3.5 μM) in 10 mM NaPi, pH 7.4
T2 sequence (P05067 672-713 limits assumed): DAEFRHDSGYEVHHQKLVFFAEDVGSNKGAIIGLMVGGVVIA
T2 sequence (P05067 672-713 limits assumed): as above
Method: (§1) In a standard FCS experiment a 5 nM Oregon-Green-labeled Aβ solution was prepared in PBS buffer with ˜3% DMSO. […] This is not surprising, because it comprises a flat arrangement of unpolar aromatics adorned with polar groups for extensive hydrogen bonding. Finally, TEM pictures were obtained from mature Aβ fibrils ([…]) as well as globular particles (3-30 nm) grown in the absence of aminopyrazole ligands.
FIG. 6A to 6F show the results of sedimentation velocity centrifugation: s-value-distributions of Aβ samples in the presence of Trimer-OH (FIG. 6A, FIG. 6B, FIG. 6C) vs. Trim-TEG-OEt (FIG. 6D, FIG. 6E, FIG. 6F). […] FIG. 6B, FIG. 6E: s-value distributions of the control experiments as determined by 2D-SA and Monte Carlo analysis. FIG. 6C, FIG. 6F: s-value distributions of experiments with 200 μM Trimer derivative after 5 d of incubation as determined by 2D-SA and Monte Carlo analysis.
(§2) Sedimentation velocity centrifugation was performed in an XLA (BeckmanCoulter, Palo Alto, USA) equipped with absorption optics and a four hole titanium rotor. […] Radial scans were recorded at a resolution of 0.002 cm. Detection wavelength was chosen at 493 nm to observe endlabeled FITC or Oregon Green™ and to avoid background absorbance from the test compound.
Sedimentation data were analyzed with UltraScan 9.4 (http://www.ultrascan.uthscsa.edu). […]

[1] = Sedimentation of the pure ligand (self-association); assay type: physicochemical; conditions: ligand itself
Method: as §1
Such an arrangement may also result in far-reaching conformational effects, indicated already be widening of the upper U-turn; these are now proposed to destroy the existing β-sheet (FIG. 12). The high positive charge of all five lysine residues requires the use of PBS with its high ionic strength for sedimentation experiments. […] Admittedly, their structures are somewhat reminiscent of the amphiphilic hybrid peptides (e.g., KLVFF-EEEEE) presented in the nineties for aggregation prevention by surface tension increase. […]
as §2

[2] = Solubility of the unprotected aminopyrazole trimers (stock solutions); conditions: water (class a) or DMSO (class b)
Method: The ligands were dissolved in 100% DMSO as 4.95 mM stock solutions and were stored at −20° C.

T1 sequence (P05067 672-713 limits assumed): as above

SMILES: COC(=O)C(CCCCN)NC(=O)c1cc(NC(=O)c2cc(NC(=O)c3cc([N+](=O)[O-])n[nH]3)n[nH]2)n[nH]1.O=C(O)C(F)(F)F (centres unmarked) [Trimer-Lys-OMe]
- effect on Aβ aggregation kinetics (Aβ(1-42)): accelerates Aβ aggregation

SMILES: O=C(O)c1cc(NC(=O)c2cc(NC(=O)c3cc([N+](=O)[O-])n[nH]3)n[nH]2)n[nH]1 [Trimer-OH, 3-(3-(3-Nitro-1H-pyrazole-5-carboxamido)-1H-pyrazole-5-carboxamido)-1H-pyrazole-5-carboxylic acid]
- molecular weight reduction of Aβ aggregates (Oregon-Green-labeled Aβ; corresponding to decrease to 25 S): 50%
- sedimentation coefficient of Aβ complex with ligand (Oregon-Green-labeled Aβ; dose-dependent decrease, pure Aβ above 50 S): 25 S
- size of micelles formed by self-association of the ligand [1]: ~10 S
- solubility [2]: 200 to 4950 µM (≈ 75.1 to 1860 µg/mL)
